Measurements reported in US8153390B2, “FRET-based binding assay” (Roche Palo Alto LLC, priority 2009, dated 2012).

Key:
BTK = biological target: T1, BTK (Homo sapiens, UniProt Q06187); experiment: Enzymatic assay for BTK (Caliper, peptide substrate); type: biochemical; conditions: 5 nM BTK, 100 μM ATP; for IC50: […] peptide substrate, read-out: Enzyme IC50
T1 construct: mixed with 26 μL of purified full length BTK (final concentration of 5 nM); purchased Invitrogen (Carlsbad, Calif.)

BTK-Btn [1] = biological target: T2, BTK-Btn (Homo sapiens, UniProt Q06187); experiment: TR-FRET competition binding assay, BTK-Btn with tracer AF647-staur; conditions: read-out: FRET IC50, 0.5 nM BTK-Btn, 0.5 nM Eu-strept
BTK-Btn [2] = biological target: T2, BTK-Btn; experiment: TR-FRET competition binding assay, BTK-Btn with tracer TR 178 (low tracer / low kinase); parameters: 6xHis (N); made in house; host or cells: Sf-9 insect cells (baculovirus)
[3] = 0.05 nM BTK-Btn and 0.5 nM TR 178
[4] = 0.05 nM BTK-Btn and 0.5 nM TR 178, read-out: Low kinase IC50
[5] = 0.05 nM TR 178 and 0.5 nM BTK-Btn
[6] = 0.05 nM TR 178 and 0.5 nM BTK-Btn, read-out: Low tracer IC50

T2 sequence (Q06187 whole entry): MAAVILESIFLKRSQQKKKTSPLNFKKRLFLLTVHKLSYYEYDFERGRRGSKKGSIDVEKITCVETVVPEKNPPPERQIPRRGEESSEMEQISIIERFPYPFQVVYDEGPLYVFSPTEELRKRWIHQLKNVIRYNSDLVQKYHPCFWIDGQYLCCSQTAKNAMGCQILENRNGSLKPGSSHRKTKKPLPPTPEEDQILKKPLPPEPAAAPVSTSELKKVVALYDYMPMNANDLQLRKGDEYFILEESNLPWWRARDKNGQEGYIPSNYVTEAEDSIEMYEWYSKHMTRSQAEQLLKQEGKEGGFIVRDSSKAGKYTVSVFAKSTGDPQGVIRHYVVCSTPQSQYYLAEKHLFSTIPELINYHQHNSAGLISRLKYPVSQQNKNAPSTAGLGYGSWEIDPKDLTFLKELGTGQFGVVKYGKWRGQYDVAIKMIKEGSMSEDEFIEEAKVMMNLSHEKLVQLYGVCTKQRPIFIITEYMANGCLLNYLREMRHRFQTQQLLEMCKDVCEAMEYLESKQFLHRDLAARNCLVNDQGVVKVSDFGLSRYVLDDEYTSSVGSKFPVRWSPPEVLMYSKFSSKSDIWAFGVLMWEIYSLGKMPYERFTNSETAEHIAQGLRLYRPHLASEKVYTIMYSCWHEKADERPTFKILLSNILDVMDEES
T1 sequence (Q06187 whole entry): as above

| Compound | Enzyme nH (hill slope of dose response curve) (BTK) | IC50 (BTK) [µM] | IC50 (BTK-Btn [1]) [µM] | Low kinase nH (BTK-Btn [2]; [3]) | IC50 (BTK-Btn [2]; [4]) [µM] | Low tracer nH (BTK-Btn [2]; [5]) | IC50 (BTK-Btn [2]; [6]) [µM] |
| --- | --- | --- | --- | --- | --- | --- | --- |
| Nc1ncnc2c1ncn2[C@@H]1O[C@H](COP(=O)(O)OP(=O)(O)O)[C@@H](O)[C@H]1O [ADP] | 1.0 ± 0.1 | > 100 | 46 ± 7 | 0.9 ± 0.1 | 200 ± 40 | 0.7 ± 0.2 | 40 ± 11 |
| CC(O)=C(C#N)C(=O)Nc1cc(Br)ccc1Br [LFM-A13, alpha-cyano-beta-hydroxy-beta-methyl-N-(2,5-dibromophenyl)propenamide] | 1.1 ± 0.1 | – | – | 1.3 ± 0.1 | – | 0.6 ± 0.2 | – |
| CC(C)(C)n1nc(-c2ccc(Cl)cc2)c2c(N)ncnc21 [PP2] | 1.1 ± 0.1 | – | – | 1.8 ± 0.1 | – | 0.9 ± 0.1 | – |
| N#CC(C#N)=Cc1cc(O)c(O)c(O)c1 [Tyrphostin 25] | 0.6 ± 0.1 | > 100 | 48 ± 15 | 0.8 ± 0.1 | 130 ± 10 | 0.6 ± 0.2 | 45 ± 9 |
